From patent publication US20200085782A1, “COMPOSITIONS AND METHODS OF ENHANCING OR AUGMENTING TYPE I IFN PRODUCTION” (Mavupharma, Inc., priority 2016, published 2020)

Key:
human recombinant ENPP1 [1] = target: T1, human recombinant ENPP1 (Homo sapiens, UniProt P22413); experiment: ENPP1 assay with 2′,3′-cGAMP substrate (AMP-Glo); format: biochemical
T1 sequence (P22413 1-925): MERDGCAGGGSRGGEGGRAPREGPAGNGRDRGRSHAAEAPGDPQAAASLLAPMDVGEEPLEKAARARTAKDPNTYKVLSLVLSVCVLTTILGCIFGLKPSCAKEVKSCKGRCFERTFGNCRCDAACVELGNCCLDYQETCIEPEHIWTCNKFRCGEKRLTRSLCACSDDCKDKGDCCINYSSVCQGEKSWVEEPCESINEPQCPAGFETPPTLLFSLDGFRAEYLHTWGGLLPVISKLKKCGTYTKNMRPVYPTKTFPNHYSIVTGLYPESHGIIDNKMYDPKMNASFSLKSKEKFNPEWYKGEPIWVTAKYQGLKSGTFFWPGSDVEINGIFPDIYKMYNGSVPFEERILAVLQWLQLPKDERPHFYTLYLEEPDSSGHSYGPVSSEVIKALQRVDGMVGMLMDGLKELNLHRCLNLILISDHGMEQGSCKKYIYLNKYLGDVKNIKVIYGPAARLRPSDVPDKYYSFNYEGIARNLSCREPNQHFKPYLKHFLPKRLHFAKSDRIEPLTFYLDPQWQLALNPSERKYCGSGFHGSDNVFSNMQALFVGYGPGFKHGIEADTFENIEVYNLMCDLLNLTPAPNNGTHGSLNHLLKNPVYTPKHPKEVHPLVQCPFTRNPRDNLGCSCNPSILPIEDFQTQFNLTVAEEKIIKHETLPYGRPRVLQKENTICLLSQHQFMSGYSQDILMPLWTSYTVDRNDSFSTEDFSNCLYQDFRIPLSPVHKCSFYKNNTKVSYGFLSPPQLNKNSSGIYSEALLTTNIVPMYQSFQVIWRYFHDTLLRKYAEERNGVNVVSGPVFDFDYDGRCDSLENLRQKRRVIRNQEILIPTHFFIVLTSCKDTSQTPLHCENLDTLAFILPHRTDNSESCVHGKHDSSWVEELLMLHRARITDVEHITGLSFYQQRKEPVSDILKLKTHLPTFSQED
Description: The AMP-Glo™ Assay Kit contains two reagents that are added sequentially. The first converts the 5′-AMP produced in the reaction to 5′ADP. The second converts the 5′-ADP to 5′ATP and reacts the 5′-ATP with the luciferase/luciferin pair to produce the luminescence signal. […] Inhibitors are added at final concentrations ranging between 10 μM and 30 pM depending on the compound. Duplicate wells are run at each inhibitor concentration. The final assay volume is 18 μL and human recombinant ENPP1 is present at 5 ng/well. The assay is initiated by the addition of substrate (20 μM 2′3′cGAMP final concentration), and incubated for 30 minutes at 37° C. To stop the reaction, 12 μl of AMP-Glo reagent I is added and the plate is incubated for 60 minutes at room temperature. 25 μl of AMP-detection reagent is then added and the wells are again incubated for 60 minutes at room temperature. The luminescence signal is then measured using a plate-reading luminometer. Each assay plate also includes wells with no enzyme added (MIN OD) and wells with no inhibitor added (MAX OD). The percent inhibition of ENPP1 for each sample is then calculated as: […]
(§1) IC50 values of compounds were calculated by entering the percent inhibition values into a sigmoidal variable slope nonlinear regression model in GraphPad Prism® software. IC50 values were converted to Ki values using the Cheng-Prusoff equation2 where the Km was 15 μM, based on internal determinations.

THP-1 cells = experiment: PDE inhibitors library screen on cGAMP activated THP-1 cells, IFNβ ELISA; format: cell-based, human; details: THP-1 cells activated with 2′,3′-cGAMP; test compound 10 μM; 24 hours; FIG. 3A-3C
Description: THP-1 Cell Activation and Screening of Test Compounds: • (a) THP-1 cells from bulk cultures were counted and suspended in RPMI 1640, 20% FBS, 2.5 mM L-alanyl-L-glutamine at a concentration of 5.5×10^6 cells/mL. The THP-1 cells were subsequently seeded into 96 well round bottom plates—volume of 180 μL/well (1×10^6 cells per well), and the plate was incubated for 1 hour at 37° C., 5% CO2. • (b) Test compounds comprising known phosphodiesterase inhibitors (PDEs), were screened in triplicate (N1, N2, N3) on THP-1 cells. For compound screening, test compounds were assayed at a final concentration of 10 μM. A 200 μM (0.2 mM) working solution of each compound was prepared by diluting 10 mM DMSO stock solutions of each compound in media at a dilution of 50:1 (1640, 20% FBS, 2.5 mM L-alanyl-L-glutamine). […] Cell culture supernatants were then transferred to a clean plate and stored at −80° C. until ready to analyze for IFNβ levels. • (j) IFNβ levels in cell culture supernatants were determined by ELISA according to the manufacturer's instructions (VeriKine Human IFNβ Assay). • (k) The interpolated data was normalized to vehicle control, or unstimulated control, and analyzed.

human recombinant ENPP1 [2] = target: T1, human recombinant ENPP1; experiment: ENPP1 assay with AMP-pNP substrate (ATP analog), absorbance at 405 nm; format: biochemical; details: read-out: ENPP1 inhibition Ki, AMP-pNP Substrate
Description: ENPP1 is an ectonucleotidase that hydrolyzes both the STING activator 2′,3′-cGAMP and 5′ATP (ATP). In some instances, an inhibitor of ENPP-1 is capable of selectively blocking the hydrolysis of 2′,3′-cGAMP while only minimally inhibiting the hydrolysis of ATP. […] The ENPP1 assay with AMP-pNP substrate is conducted in a buffer containing 50 mM Tris-HCl (pH 8.5)/250 mM NaCl/0.5 mM CaCl2/1 μM ZnCl2/0.1% DMSO. Inhibitors are added at final concentrations ranging between 10 μM and 30 pM depending on the compound. Duplicate wells are run at each inhibitor concentration. The final assay volume is 40 μL and human recombinant ENPP1 is present at 60 ng/well. The assay is initiated by the addition of substrate (300 μM AMP-pNP final concentration), and incubated for 20 minutes at 37° C. The absorbance at 405 nm is then read in a Tecan® plate reader. Each assay plate also includes wells with no enzyme added (MIN OD) and wells with no inhibitor added (MAX OD). The percent inhibition of ENPP1 for each sample is then calculated as: […]
as §1, with “equation,” for “equation2”, “151” for “15”, “determinations” for “determinations.”

Compound	Substrate Selectivity Ki Ratio AMP-pNP/2′3′cGAMP (human recombinant ENPP1 [1]; Ki (AMP-pNP)/Ki (2′3′-cGAMP))	also measured
O=c1cc(-c2ccc(O)c(O)c2)oc2cc(O)cc(O)c12 [Compound 1]	–	inhibition at 1 µM (human recombinant ENPP1 [1]; at 1 μM compound, AMP-GLO method, read-out: Inhibition of ENPP1 with cGAMP as the Substrate): 76%; inhibition at 10 µM (human recombinant ENPP1 [1]; at 10 μM compound, AMP-GLO method, read-out: Inhibition of ENPP1 with cGAMP as the Substrate): 99%; cGAMP mediated IFNβ production (THP-1 cells): augmentation of cGAMP mediated IFNβ production
COc1cc2ncnc(N3CCC(CCN)CC3)c2cc1OC [Compound 5]	>642	–
COc1cc2ncc(C#N)c(N3CCC(CCNS(C)(=O)=O)CC3)c2cc1OC [Compound 7]	244	–
CS(=O)(=O)N1CCc2ccc(-c3ncnc4ccccc34)cc2C1 [Compound 8]	>158	–
CN1CNc2ncnc(N3CCC(CCNS(C)(=O)=O)CC3)c21 [Compound 9]	>128	–
COc1cc2ccc(=O)n(Cc3ccc(NS(N)(=O)=O)cc3)c2cc1OC [Compound 10]	>127	Ki (human recombinant ENPP1 [2]): > 30000 nM; Ki (human recombinant ENPP1 [1]; read-out: ENPP1 inhibition Ki, cGAMP Substrate): 234 nM
CCN(C)S(=O)(=O)NCCC1CCN(c2ncnc3cc(OC)c(OC)cc23)CC1 [Compound 12]	>89.0	–
COc1cc2ncnc(N3CCC(CNS(N)(=O)=O)CC3)c2cc1OC [Compound 13]	86.7	–
COc1cc2ncnc(N3CCN(C(=O)CNS(N)(=O)=O)CC3)c2cc1OC [Compound 15]	57.3	–

Continued, in another order:

Substrate Selectivity Ki Ratio AMP-pNP/2′3′cGAMP (human recombinant ENPP1 [1]; Ki (AMP-pNP)/Ki (2′3′-cGAMP))	Compound	also measured
48.3	COc1cc2ncnc(-c3ccc(CNS(N)(=O)=O)cc3)c2cc1OC [Compound 17]	–
47.7	COc1cc2nc(N)nc(N3CCC(CCNS(N)(=O)=O)CC3)c2cc1OC [Compound 18]	–
44.8	COc1cc2ncnc(N3CCC4(CC3)CCN(S(C)(=O)=O)C4)c2cc1OC [Compound 19]	–
>38.7	CNc1nc(N2CCC(CCNS(N)(=O)=O)CC2)c2cc(OC)c(OC)cc2n1 [Compound 20]	–
36.2	COc1cc2ncnc(-c3ccc4c(c3)CN(S(N)(=O)=O)CC4)c2cc1OC [Compound 21]	–
34.7	COc1cc2ncnc(NCc3ccc(NS(N)(=O)=O)cc3)c2cc1OC [Compound 22]	–
>23.9	COc1cc2nc(-c3ccccc3)nc(N3CCC(CCNS(N)(=O)=O)CC3)c2cc1OC [Compound 23]	–
18.7	COc1cc2ncnc(N3CCC4(CC3)CN(S(C)(=O)=O)C4)c2cc1OC [Compound 24]	–
>6.80	COc1cc2nccc(Oc3ccc(NS(=O)(=O)c4ccccc4)cc3)c2cc1OC [Compound 25]	selectivity for inhibition of cGAMP over AMP-pNP hydrolysis by ENPP1 (human recombinant ENPP1 [1]; Ki (AMP-pNP)/Ki (2′3′-cGAMP)): ~6.8 fold
